Assay results reported in US12594421B2, “Compositions and methods for increasing cancer cell sensitivity to alternating electric fields” (NOVOCURE GMBH, priority 2020, dated 2026).

Key:
A2780 cells [1] = assay type: cell-based; conditions: for inhibition concentration 25 (IC25): concentration added for 72 h, cell line not stated in b192 (8 nM is the A2780 concentration of b155)
Procedure: (§1) All cell lines were obtained from ATCC: U-87 (human glioma cell lines) and H1299 (human metastatic lung carcinoma), A2780 (ovarian cell line). Cells were cultured in Dulbecco's modified Eagle's medium (Biological Industries) or RPMI (GIBCO) medium supplemented with 5-10% fetal bovine serum and antibiotics.
5,000-50,000 single cells were suspended in 500 μL of media and seeded in the middle of a 22 mm diameter cover slip.
(§2) For induction of 24 hours or longer TTFields application the cover slips were placed in a ceramic dish of Inovitro™ system and allowed to incubate in a conventional tissue culture incubator (37° C., 95% air, 5% CO2) overnight. Once cells adhered to the cover slip, an additional 1.5 mL of media were added to each well and covered in Parafilm (P7793, Sigma Aldrich) to avoid evaporation of media. After an overnight incubation dishes were mounted onto Inovitro™ base plates (Novocure Inc., Haifa, Israel). Tumor Treating electric fields set anywhere from 1-6 V/cm were applied through an Inovitro™ power generator while frequencies ranged from 50-500 kHz. Incubation temperature was 18° C. with a target temperature of 37° C. for the ceramic dishes upon application of the TTFields. Corresponding control experiments were done by placing equivalent cover slips within ceramic dishes into a conventional tissue culture incubator (37° C., 5% CO2) and cells grown in parallel with the TTField-exposed coverslips.
(§3) BGT226, Alpalisib, Pictilisib, BKM120 and Dasatinib were added was added to cells 12-24 hours after seeding for inhibitor mono-treatment and combination treatment to a final concentration of 8 nM, 1 nm, 1 nm, 500 nm and 75 nm respectively in A2780 cells. Control and TTFields samples received same volume of DMSO. Following 72 hours of treatment media was replaced for media with no inhibitor and cells were grown for additional 96 hours. At 168 hours (7 days) cytotoxic assay was performed by GentelMACS cell count, Apoptosis assay and cells were seeded for colony assay (as specified in cell count and Quantification of cell death).
(§4) Cells were detached from Inovitro™ dishes with 0.5 ml Trypsin A for approximately 5 minutes and then supplemented with 0.5 ml culture media. 200 μl of cells were taken to 96 well U-shaped plate to be counted in MACSQuant 10 flow cytometer. Analysis was performed with FlowJo_V10 software and statistics was done by GraphPad Prism 8 software.

H1299 cells = experiment: Cytotoxicity by cell count, TTFields plus Dasatinib; assay type: cell-based, human; conditions: H1299, TTFields 150 kHz, Dasatinib 0.03 μM (IC25) 72 h, then TTFields alone 96 h
Procedure: as §1
as §2, with “Corresponding control experiments were done by placing equivalent cover slips within ceramic dishes into a conventional tissue culture incubator (37° C., 5% CO2) and cells grown in parallel with the TTField-exposed coverslips.” left out
Cells were detached from Inovitro™ dishes with 0.5 ml Trypsin A for approximately 5 minutes and then supplemented with 0.5 ml culture media. 200 μl of cells were taken to 96 well U-shaped plate to be counted in MACSQuant 10 flow cytometer. […]

cancer cells [2] = experiment: Apoptosis, TTFields plus GSK3β inhibitor 9-ING-41 (FIG. 19); assay type: cell-based; conditions: cell line and concentration not stated
Procedure: (§5) Cell death was assessed by double staining of cells with FITC-conjugated annexin V (MEBCYTO© 4700 Apoptosis Kit; MBL©) and 7-Aminoactinomycin D (7-AAD; BioLegend©) as per manufacturer's instructions.

cancer cells [3] = experiment: Cell cytotoxicity, TTFields plus GSK3β inhibitor 9-ING-41 (FIG. 19); assay type: cell-based; conditions: cell line and concentration not stated
Procedure: as §4

[4] = system: Akt phosphorylation in Ser473; experiment: Western blot of Akt phosphorylation (pAkt Ser473) after TTFields with BGT226; assay type: cell-based, human
Procedure: Following TTFields application cells were transferred to cold PBS plates for wash.
RIPA lysis buffer (R0278, Sigma-Aldrich), supplemented with a cocktail of protease (Complete Mini, Roche), and phosphatase inhibitors (Halt #78420, Thermo Scientific) was added to plates and cells were scraped with approximately 100 μl supplemented RIPA buffer for 8 Inovitro™ dishes.
Extracts were shaken at 4° C. for a duration of 30 minutes. Samples were centrifuged (20 min, 14,000 rpm, 4° C.). supernatant was transferred and protein concentration was determined by BCA protein assay kit. […]
After electrophoresis, proteins were transferred to 0.2 μm polyvinylidene difluoride membrane (Immuno-Blot PVDF #162-0177, Bio-Rad) and probed with the appropriate primary antibody: GAPDH (SC-32233, Santa Cruz), Vinculin (ab140007, Abcam), Cyclin D1 (2922, Cell Signaling), Rb (9309, Cell Signaling), pRb S807/811 (8516, Cell Signaling), pAkt 5473, (4051, Cell signaling), Akt (2920, Cell signaling)), FAK (3283S, Cell signaling), Phospho-FAK (Tyr397) (3283S, Cell signaling, Src (2109S, cell signaling) and Phospho-Src (Tyr416) (2101S, Cell signaling). followed by horseradish peroxidase-conjugated secondary antibody (goat anti rabbit 7074, Cell Signaling and goat anti mouse 7076, Cell Signaling) and a chemiluminescent substrate (WBLUF0100, Signa-Aldrich). Quantification of bands was done by Image J software. […]

A2780 cells [5] = experiment: Colony assay (clonogenicity), TTFields plus inhibitor; assay type: cell-based, human; conditions: FIG. 18; BGT226 8 nM 72 h, then TTFields alone 96 h
Procedure: as §3
Colony assay: following cell count 300 cells of each treatment were seeded in duplicates in 6 well dishes with 2 ml media. Once colonies were visible they were washed with PBS. Cells were fixed in −20° C. methanol and stained with 0.5% Crystal violet. Colonies were imaged in camera and counted using Image J (FIJI).

A2780 cells [6] = experiment: Apoptosis assay (annexin V / 7-AAD), TTFields plus inhibitor; assay type: cell-based, human; conditions: FIG. 6E
Procedure: as §3, §5

## CC(=O)O[C@H]1C(=O)[C@@]2(C)[C@H]([C@H](OC(=O)c3ccccc3)[C@]3(O)C[C@H](OC(=O)[C@H](O)[C@@H](NC(=O)c4ccccc4)c4ccccc4)C(C)=C1C3(C)C)[C@]1(OC(C)=O)CO[C@@H]1C[C@@H]2O [Paclitaxel]
A2780 cells [1]; FIG. 18, Paclitaxel 2 nM 72 h, then TTFields alone 96 h
  cytotoxicity of combination with TTFields: effective to a lesser extent than that of BGT226
A2780 cells [1]; FIG. 18
  inhibition concentration 25 (IC25): 2 nM

## Cc1nc(Nc2ncc(C(=O)Nc3c(C)cccc3Cl)s2)cc(N2CCN(CCO)CC2)n1 [Dasatinib]
A2780 cells [1]; A2780, TTFields 200 kHz, Dasatinib 0.075 μM (IC25) 72 h, then TTFields alone 96 h
  treatment efficacy of TTFields plus Dasatinib, cytotoxic effect: increased treatment efficacy relative to TTFields or inhibitor alone in all combination groups
H1299 cells
  treatment efficacy of TTFields plus Dasatinib, cytotoxic effect: increased treatment efficacy relative to TTFields or inhibitor alone in all combination groups

## Cn1cc(C2=C(c3coc4ccc(F)cc34)C(=O)NC2=O)c2cc3c(cc21)OCO3 [9-ING-41]
Cancer cells [2]
  efficacy of TTFields treatment in apoptosis, combination therapy: did not increase efficacy of TTFields treatment
Cancer cells [3]
  efficacy of TTFields treatment in cell cytotoxicity, combination therapy: did not increase efficacy of TTFields treatment

## COc1ccc(-c2ccc3ncc4c(c3c2)n(-c2ccc(N3CCNCC3)c(C(F)(F)F)c2)c(=O)n4C)cn1 [BGT226]
A2780 cells [1]; FIG. 6A-6E, cell line not stated
  cell resistance caused by pro-survival signaling by TTFields: inhibited by BGT226
A2780 cells [1]; FIG. 6C, cell line not stated
  cell survival, combination of TTFields with BGT226: synergistic effect in cell survival
A2780 cells [1]; FIG. 18, BGT226 8 nM or Paclitaxel 2 nM 72 h, then TTFields alone 96 h
  efficacy of combination with TTFields, BGT226 compared with Paclitaxel: more effective than Paclitaxel and TTFields
A2780 cells [1]; FIG. 18
  inhibition concentration 25 (IC25): 8 nM
[4]; A2780 cells, BGT226 5 nM for 72 h, then media without inhibitor 96 h, lysate at 168 hours
  phosphorylation of Akt in Ser473 following combined treatment of TTFields and BGT226: decrease in phosphorylation of Akt in Ser473
[4]; Western blot, FIG. 5A-5B
  increase in Akt phosphorylation following TTFields: inhibited by BGT226
A2780 cells [5]
  clonogenicity, combination therapy with TTFields: dramatic effect in combination therapy with BGT226 compared to Paclitaxel
A2780 cells [6]
  live cells (AnnexinV-/7AAD-), inhibitor alone compared to combined treatment: more live cells
A2780 cells [6]; cell line not stated
  apoptotic assay, combined treatment of TTFields and inhibitor: induce apoptosis in reminder of cells
